Data as given in patent US4952577A, “Methoxymethyl penem compounds” (Farmitalia Carlo Erba S.r.l., priority 1987, dated 1990).
Converted amounts (≈) assume the structure as drawn. Where two headings read alike, the source gives them in different places.

Tests used:
[1] = system: S. epidermidis ATCC 12228; test: In vitro antibacterial activity (MIC); type: cell-based; details: Staphylococcus epidermidis, ATCC12228
[2] = system: Serratia marcescens ATCC 2902; test: In vitro antibacterial activity (MIC); type: cell-based; details: ATCC2902
[3] = system: Klebsiella aerogenes 1522E; test: In vitro antibacterial activity (MIC); type: cell-based
[4] = system: Shigella flexneri ATCC 11836; test: In vitro antibacterial activity (MIC); type: cell-based; details: ATCC11836
[5] = system: Providencia stuartii Bs 60; test: In vitro antibacterial activity (MIC); type: cell-based; details: BS60
[6] = system: P. morganii ATCC 25830; test: In vitro antibacterial activity (MIC); type: cell-based; details: Morganella morganii, ATCC25830
[7] = system: S. aureus 2 MR; test: In vitro antibacterial activity (MIC); type: cell-based; details: Staphylococcus aureus
[8] = system: Proteus mirabilis FI 7474; test: In vitro antibacterial activity (MIC); type: cell-based; details: FI7474
[9] = system: E. coli R997 (HSM-1); test: In vitro antibacterial activity (MIC); type: cell-based; details: Escherichia coli
[10] = system: S. aureus 2101 MR; test: In vitro antibacterial activity (MIC); type: cell-based; details: Staphylococcus aureus
[11] = system: A. calcolaceticus N 409; test: In vitro antibacterial activity (MIC); type: cell-based
[12] = system: Salmonella typhi ATCC 14028; test: In vitro antibacterial activity (MIC); type: cell-based; details: Salmonella enterica, read-out: In vitro MIC
[13] = system: Escherichia coli K 12; test: In vitro antibacterial activity (MIC); type: cell-based; details: K12
[14] = system: S. faecalis 55; test: In vitro antibacterial activity (MIC); type: cell-based; details: Enterococcus faecalis
[15] = system: S. aureus 39/2 Pen^+; test: In vitro antibacterial activity (MIC); type: cell-based; details: Staphylococcus aureus
[16] = system: Streptococcus pyogenes ATCC 12384; test: In vitro antibacterial activity (MIC); type: cell-based; details: ATCC12384
[17] = system: S. salivarius ATCC 9758; test: In vitro antibacterial activity (MIC); type: cell-based; details: Streptococcus salivarius, ATCC9758
[18] = system: Acinetobacter calcoaceticus Bg 3; test: In vitro antibacterial activity (MIC); type: cell-based; details: BG3
[19] = system: Staphylococcus aureus Smith; test: Therapeutic efficacy against experimental infections in the mouse; type: in vivo; details: sc, subcutaneous administration, therapy 2 hours after infection, read-out: ED50 (cumulative dose)
[20] = system: P. rettgeri ATCC 925; test: In vitro antibacterial activity (MIC); type: cell-based; details: Providencia rettgeri, ATCC925
[21] = system: E. coli B cef. R; test: In vitro antibacterial activity (MIC); type: cell-based; details: Escherichia coli
[22] = system: E. aerogenes F46; test: In vitro antibacterial activity (MIC); type: cell-based; details: Klebsiella aerogenes
[23] = system: C. freundii 4051 cef. R; test: In vitro antibacterial activity (MIC); type: cell-based; details: Citrobacter freundii
[24] = system: S. faecalis ATCC 6057; test: In vitro antibacterial activity (MIC); type: cell-based; details: Enterococcus faecalis, ATCC6057
[25] = system: E. aerogenes 225; test: In vitro antibacterial activity (MIC); type: cell-based; details: Klebsiella aerogenes
[26] = system: S. aureus 5635 MR; test: In vitro antibacterial activity (MIC); type: cell-based; details: Staphylococcus aureus
[27] = system: Staphylococcus aureus Smith; test: In vitro antibacterial activity (MIC); type: cell-based
[28] = system: E. cloacae P99 cef. R.; test: In vitro antibacterial activity (MIC); type: cell-based; details: Enterobacter cloacae, P99CEF.R.
[29] = system: K. Aerogenes 1082 E cef. R; test: In vitro antibacterial activity (MIC); type: cell-based; details: Klebsiella aerogenes
[30] = system: P. aeruginosa ATCC 19660; test: In vitro antibacterial activity (MIC); type: cell-based; details: Pseudomonas aeruginosa, ATCC19660
[31] = system: Pseudomonas aeruginosa 2598; test: In vitro antibacterial activity (MIC); type: cell-based
[32] = system: S. faecium ATCC 8043; test: In vitro antibacterial activity (MIC); type: cell-based; details: Enterococcus faecium, ATCC8043
[33] = system: gram-positive and gram-negative bacteria; test: Control and treatment of experimental infections in the mouse; type: in vivo
[34] = system: Enterobacter cloacae 1321E; test: In vitro antibacterial activity (MIC); type: cell-based
[35] = system: Cirobacter freundii ATCC 8090; test: In vitro antibacterial activity (MIC); type: cell-based
[36] = system: Escherichia coli G; test: Therapeutic efficacy against experimental infections in the mouse; type: in vivo; details: therapy 0.5-1.5-6 hours after infection, read-out: ED50 (cumulative dose)
[37] = system: P. vulgaris 51; test: In vitro antibacterial activity (MIC); type: cell-based; details: Proteus vulgaris
[38] = Pharmacokinetic parameters of prodrug esters; type: in vivo; details: mouse; last line of Table 4
[39] = system: renal dehydropeptidases; test: Stability towards renal dehydropeptidases; type: in vitro ADME; details: compared with the prior-described mixture
[40] = Chemical stability over the whole pH-range; type: physicochemical; details: compared with the prior-described mixture
[41] = system: bacterial β-lactamases; test: Stability towards bacterial β-lactamases; type: in vitro ADME; details: compared with the prior-described mixture

In the case of `COCC1=C(C(=O)O)N2C(=O)[C@H]([C@@H](C)O)[C@H]2S1` [5R,6S,1'R isomer], the MIC [1] is reported as 0.09 µg/mL (≈ 0.347 µM), the MIC [2] is reported as 6.25 µg/mL (≈ 24.1 µM) and the MIC [3] is reported as 0.39 µg/mL (≈ 1.5 µM). The MIC [4] was 0.19 µg/mL (≈ 0.733 µM), the MIC [5] was 3.12 µg/mL (≈ 12 µM) and the MIC [6] was 1.56 µg/mL (≈ 6.02 µM). For the same compound, the MIC [7] was 3.12 µg/mL (≈ 12 µM), the MIC [8] was 0.78 µg/mL (≈ 3.01 µM) and the MIC [9] was 0.39 µg/mL (≈ 1.5 µM). It also gave an MIC [10] of 3.12 µg/mL (≈ 12 µM), an MIC [11] of 6.25 µg/mL (≈ 24.1 µM) and an MIC [12] of 0.39 µg/mL (≈ 1.5 µM). It also gave an MIC [13] of 0.39 µg/mL (≈ 1.5 µM), an MIC [14] of 3.12 µg/mL (≈ 12 µM) and an MIC [15] of 0.09 µg/mL (≈ 0.347 µM). It also gave an MIC [16] of 0.022 µg/mL (≈ 0.0848 µM), an MIC [17] of 0.022 µg/mL (≈ 0.0848 µM) and an MIC [18] of 1.56 µg/mL (≈ 6.02 µM). For the same compound, the ED50 [19] was 0.21 mg/kg, the MIC [20] was 1.56 µg/mL (≈ 6.02 µM) and the MIC [21] was 0.78 µg/mL (≈ 3.01 µM). For the same compound, the MIC [22] was 0.78 µg/mL (≈ 3.01 µM), the MIC [23] was 6.25 µg/mL (≈ 24.1 µM) and the MIC [24] was 1.56 µg/mL (≈ 6.02 µM). For the same compound, the MIC [25] was 0.78 µg/mL (≈ 3.01 µM), the MIC [26] was 0.19 µg/mL (≈ 0.733 µM) and the MIC [27] was 0.09 µg/mL (≈ 0.347 µM). For the same compound, the MIC [28] was 0.39 µg/mL (≈ 1.5 µM), the MIC [29] was 0.39 µg/mL (≈ 1.5 µM) and the MIC [30] was > 25 µg/mL. For the same compound, the MIC [31] was > 25 µg/mL, the MIC [32] was 3.12 µg/mL (≈ 12 µM) and the “efficacy in the control and treatment of experimental infections” value [33] was “excellent efficacy”. For the same compound, the MIC [34] was 0.39 µg/mL (≈ 1.5 µM), the MIC [35] was 0.39 µg/mL (≈ 1.5 µM) and the ED50 ([36]; sc, subcutaneous administration) was 6.7 mg/kg. The MIC [37] was 0.39 µg/mL (≈ 1.5 µM).
With `COCC1=C(C(=O)OCOC(C)=O)N2C(=O)[C@H]([C@@H](C)O)[C@H]2S1` [Compound 1, Acetoxymethyl (5R,6S)-6-[l(R)-Hydroxyethyl]-2-Methoxymethyl-Penem-3-Carboxylate] the “[drawing 32] (parameter name shown only as drawing)” value [38] was 7.
With `COCC1=C(C(=O)OCc2oc(=O)oc2C)N2C(=O)[C@H]([C@@H](C)O)[C@H]2S1` [Compound 20, (5-Methyl-2-Oxo-1,3-Dioxolen-4-yl)Methyl (5R,6S)-6-[1(R)-Hydroxyethyl]-2-Methoxymethyl-Penem-3-Carboxylate] the “[drawing 32] (parameter name shown only as drawing)” value [38] was 7 and the ED50 ([36]; oral administration) was 13.1 mg/kg.
With `CC(=O)OCOC(=O)C1=C(COC(N)=O)S[C@@H]2[C@@H]([C@@H](C)O)C(=O)N12` [FCE 22891, reference compound] the “[drawing 32] (parameter name shown only as drawing)” value [38] was 6.
In the case of `COCC1=C(C(=O)O)N2C(=O)[C@H]([C@@H](C)O)[C@H]2S1` [compound of formula (I), (5R,6S, 1'R)-configured 6-(1-hydroxyethyl)-2-methoxymethyl-penem-3-carboxylic acid], the “stability towards renal dehydropeptidases” value [39] is reported as “superior stability”, the chemical stability [40] is reported as “considerably improved chemical stability” and the “stability towards bacterial β-lactamases” value [41] is reported as “superior stability”.
